According to patent US10624891B2, “Method of diagnosing and treating skin necroptosis disease comprising RIP3-MLKL pathway blocker” (Ajou University Industry-Academic Cooperation Foundation, priority 2015, dated 2020):
Like-named read-outs stand apart in the source and are kept apart here. Where a SMILES comes first, the peptide text is derived from it. The star is where a group is joined. Cbz = O=C(OCc1ccccc1)*; CH2F = FC*

Legend:
HaCaT and HEKn = experiment: TNFα-induced necroptosis stimuli (TCZ or TSZ) in keratinocytes; type: cell-based, human; conditions: TNFα + zVAD + cyclohexamide or SMAC mimetic
Excerpt: The immortal human keratinocyte line HaCaT and primary human epidermal keratinocyte isolated from neonatal foreskin (HEKn) responded to prototypical necroptosis stimuli induced by TNFα (TNFα[…]+zVAD+cyclohexamide or SMAC mimetic; also referred to herein as TCZ or TSZ). […] Additionally, from a knockout model, it was confirmed whether RIP3 and RIP1 affect TNF-induced cell death via necroptosis.

HaCaT cells = experiment: SNP-induced cell death in HaCaT cells, MTT assay and phase-contrast microscopy; type: cell-based, human; conditions: for SNP-induced cell death (cell viability, MTT assay): pretreated with 80 μM of Nec-1 and/or 20 μM of zVAD for 1 hour, followed by SNP
Procedure: Whether SNP-induced cell death is improved by […] necrostatin-1 (Nec-1), and combination treatment of zVAD and Nec-1 was examined in HaCaT cells using MTT assay and phase-contrast microscopy. Cells were pretreated with 80 μM of Nec-1 and/or 20 μM of zVAD for 1 hour, followed by SNP treatment.

SNP-induced cell death = SNP-induced cell death with ROS scavenger or MAPK pathway inhibitors; type: cell-based; conditions: pretreatment or treatment with inhibitor
Excerpt: However, as shown in FIGS. 11A and 11B, in cells pretreated with NAC having ROS scavenging ability, SNP-induced cell death was inhibited similarly in Nec-1 treated group (FIG. 11A). From this, it was confirmed again that ROS is associated with SNP-induced cell death. Further, SNP-induced cell death was inhibited by treatment with JNK inhibitor […] (SP), p38 inhibitor sB202190 (SB), and MEK, upstream of ERK, inhibitor PD98059 (PD) (FIG. 11B).

[1] = tested on: RIP3 overexpressing cells; experiment: MLKL phosphorylation inhibition in RIP3 overexpressing cells; type: cell-based, human
Excerpt: As shown in FIGS. 17A and 17B, the basal phosphorylation of MLKL in RIP3 overexpressing cells, and SNP-induced p-MLKL were eliminated by an RIP3 inhibitor dabrafenib (FIG. 17A).

SMILES: CC(NC(=O)C(NC(=O)OCc1ccccc1)C(C)C)C(=O)NC(CC(=O)O)C(=O)CF (stereo not drawn) [zVAD] (Cbz-Val-Ala-Asp-CH2F; configuration not given here)
- TNF-induced cell death (HaCaT and HEKn): did not prevent
- caspase-3 and PARP processing (HaCaT and HEKn): completely blocked
- SNP-induced cell death (cell viability, MTT assay) (HaCaT cells): reduced

SMILES: COc1cccc(-c2cc(=O)c3ccccc3o2)c1N [PD98059]
- SNP-induced cell death (SNP-induced cell death): inhibited

SMILES: CN1C(=O)C(Cc2c[nH]c3ccccc23)NC1=S (stereo not drawn) [Nec-1, necrostatin-1]
- protection from acute SNP cytotoxicity / SNP-induced cell death (HEKn cells; HEKn cells): protected HEKn cells from acute SNP cytotoxicity more effectively than zVAD
- SNP-induced cell death (phase-contrast microscopy and Annexin-V staining) (HaCaT cells): inhibited
- SNP-induced cell death (cell viability, MTT assay) (HaCaT cells): reduced
- SNP-induced cell death (SNP-induced cell death): inhibited

SMILES: O=C1c2ccccc2-c2n[nH]c3cccc1c23 [SP420119]
- SNP-induced cell death (SNP-induced cell death): inhibited

SMILES: CC(C)(C)c1nc(-c2cccc(NS(=O)(=O)c3c(F)cccc3F)c2F)c(-c2ccnc(N)n2)s1 [dabrafenib]
- protection from acute SNP cytotoxicity / SNP-induced cell death (HEKn cells): protected HEKn cells from acute SNP cytotoxicity more effectively than zVAD
- SNP-induced p-MLKL ([1]; SNP treated): eliminated
- basal phosphorylation of MLKL ([1]; no SNP): eliminated

SMILES: Oc1ccc(-c2nc(-c3ccncc3)c(-c3ccc(F)cc3)[nH]2)cc1 [sB202190]
- SNP-induced cell death (SNP-induced cell death): inhibited

SMILES: COc1nccnc1NS(=O)(=O)c1ccc(NC(=O)/C=C/c2ccc([N+](=O)[O-])s2)cc1 [NSA, necrosulfonamide]
- protection from acute SNP cytotoxicity / SNP-induced cell death (HEKn cells; HEKn cells): protected HEKn cells from acute SNP cytotoxicity more effectively than zVAD

SMILES: CC(=O)N[C@@H](CS)C(=O)O [NAC]
- SNP-induced cell death (SNP-induced cell death): inhibited
